Legend:
bees = conditions: perhaps contributing to the collapse of bee colonies; cited from earlier work
lanternfly = conditions: in vivo; cited from earlier work
[1] = tested on: spotted lanternflies (lycorma delicatula); experiment: formulations sprayed on lantern flies to test lethality; format: in vivo; conditions: applied by spraying the top of the insect; lethal = the insect dies within 10 minutes
Protocol: The concentration of menthol in the insecticide should be sufficient such that it is lethal to the insect. As used herein, the term “lethal” means that, once applied by spraying the top of the insect, the insect dies within 10 minutes. Those of skill in the art can determine a lethal dose of menthol without undue experimentation. Although higher doses tend to result in a shorter kill time, given the expense of menthol, it is generally preferred to minimize its concentration to achieve a sufficient kill time, i.e., less than 10 minutes and preferably less than 2 minutes, and more preferably less than 1 minute.
The following nonlimiting examples illustrate the effectiveness of the insecticide of the present invention. […] In all cases, the formulations were applied to lantern flies to test the effectiveness of the particular formulation, and, in all cases, the formulations were lethal as defined in this application.
Again, in all cases, the formulations were applied to lantern flies to test the effectiveness of the particular formulation, and, in all cases, the formulation were lethal as defined in this application.

Row | Compound | effect on bees (bees) | shown to be effective in exterminating the lanternfly (lanternfly) | time to kill the lanternfly (lanternfly) | lethal to lanternfly [1]
1 | CN/C(=N/CC1CCOC1)N[N+](=O)[O-] (centres unmarked) [Dinotefuran] | detrimental | effective | hours | 
2 | CC1(C)C(C=C(Cl)Cl)C1C(=O)OCc1cccc(Oc2ccccc2)c1 (centres unmarked) [Permethrin] |  | effective |  | 
3 | CC1CCC(C(C)C)C(O)C1 (centres unmarked) [menthol] |  |  |  | lethal
